Target: T1, human NEP (Homo sapiens, UniProt P08473)
T1 construct: purchased R&D Systems, Minneapolis, Minn; 1182-ZN
Test: In vitro enzyme inhibition assay, inhibitor potency at human NEP (Assay 1)
Type: biochemical
Details: recombinant human NEP; fluorogenic peptide substrate 10 μM; 37° C.; values given as ranges
Description: The inhibitory activities of compounds at human and rat neprilysin (EC 3.4.24.11; NEP) and human angiotensin converting enzyme (ACE) were determined using in vitro assays as described below.
Recombinant human NEP and recombinant human ACE were obtained commercially (R&D Systems, Minneapolis, Minn., catalog numbers 1182-ZN and 929-ZN, respectively). The fluorogenic peptide substrate Mca-D-Arg-Arg-Leu-Dap-(Dnp)-OH (Medeiros et al. (1997) Braz. J. Med. Biol. Res. 30:1157-62; Anaspec, San Jose, Calif.) and Abz-Phe-Arg-Lys(Dnp)-Pro-OH (Araujo et al. (2000) Biochemistry 39:8519-8525; Bachem, Torrance, Calif.) were used in the NEP and ACE assays respectively.
The assays were performed in 384-well white opaque plates at 37° C. using the fluorogenic peptide substrates at a concentration of 10 μM in Assay Buffer (NEP: 50 mM HEPES, pH 7.5, 100 mM NaCl, 0.01% polyethylene glycol sorbitan monolaurate (Tween-20), 10 μM ZnSO4; ACE: 50 mM HEPES, pH 7.5, 100 mM NaCl, 0.01% Tween-20, 1 μM ZnSO4).
Test compounds were assayed over the range of concentrations from […] to 20 μM. Test compounds were added to the enzymes and incubated for 30 minute at 37° C. prior to initiating the reaction by the addition of substrate. Reactions were terminated after 20 minutes of incubation at 37° C. by the addition of glacial acetic acid to a final concentration of 3.6% (v/v).
Plates were read on a fluorometer with excitation and emission wavelengths set to 320 nm and 405 nm, respectively. Inhibition constants were obtained by nonlinear regression of the data using the equation (GraphPad Software, Inc., San Diego, Calif.): ν=ν0/[1+(I/K′)] where ν is the reaction rate, ν0 is the uninhibited reaction rate, I is the inhibitor concentration and K′ is the apparent inhibition constant.
Compounds of the invention were tested in this assay and found to have pKi values at human NEP as follows.

T1 sequence (P08473 52-750 limits assumed): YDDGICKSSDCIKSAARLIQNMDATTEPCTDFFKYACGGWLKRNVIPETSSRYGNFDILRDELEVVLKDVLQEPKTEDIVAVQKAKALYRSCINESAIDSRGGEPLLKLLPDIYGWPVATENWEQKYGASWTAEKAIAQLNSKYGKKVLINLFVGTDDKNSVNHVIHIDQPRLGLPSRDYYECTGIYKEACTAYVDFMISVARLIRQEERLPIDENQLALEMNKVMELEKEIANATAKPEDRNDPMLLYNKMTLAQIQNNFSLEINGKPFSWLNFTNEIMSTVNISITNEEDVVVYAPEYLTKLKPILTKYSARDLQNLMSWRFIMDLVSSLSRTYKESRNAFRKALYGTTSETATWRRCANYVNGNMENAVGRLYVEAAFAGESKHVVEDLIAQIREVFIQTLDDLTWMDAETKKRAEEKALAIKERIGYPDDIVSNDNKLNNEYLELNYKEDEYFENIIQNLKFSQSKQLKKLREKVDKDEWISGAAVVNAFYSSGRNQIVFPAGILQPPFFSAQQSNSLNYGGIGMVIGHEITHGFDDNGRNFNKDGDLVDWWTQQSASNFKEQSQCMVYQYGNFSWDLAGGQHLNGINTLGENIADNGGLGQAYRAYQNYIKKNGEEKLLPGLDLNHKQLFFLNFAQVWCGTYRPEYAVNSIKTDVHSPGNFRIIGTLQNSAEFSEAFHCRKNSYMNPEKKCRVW

SMILES | Ki [nM]
O=C(N[C@H](Cc1ccc(-c2cccc(Cl)c2)cc1)C[C@@H](O)C(=O)O)C(=O)N1CCCC[C@H]1CO [Example 4-26, (2R,4R)-5-(3′-Chlorobiphenyl-4-yl)-2-hydroxy-4-[2-((S)-2-hydroxymethyl-piperidin-1-yl)-2-oxo-acetylamino]pentanoic acid] | ≤ 1
O=C(N[C@H](Cc1ccc(-c2cccc(Cl)c2)cc1)C[C@@H](O)C(=O)O)C(=O)N1CC2(COC2)C1 [Example 4-50, (2R,4R)-5-(3′-Chlorobiphenyl-4-yl)-2-hydroxy-4-[2-(2-oxa-6-aza-spiro[3.3]hept-6-yl)-2-oxo-acetylamino]pentanoic acid] | 10 to 31.6
CC(C)CC(=O)C(=O)N[C@H](Cc1ccc(-c2cccc(Cl)c2)cc1)C[C@@H](O)C(=O)O [Example 2-1, (2R,4R)-5-(3′-Chloro-biphenyl-4-yl)-2-hydroxy-4-(4-methyl-2-oxo-pentanoylamino)-pentanoic acid] | 1 to 10
CON(C)C(=O)C(=O)N[C@H](Cc1ccc(-c2cccc(Cl)c2)cc1)C[C@@H](O)C(=O)O [Example 4-12, (2R,4R)-5-(3′-Chlorobiphenyl-4-yl)-2-hydroxy-4-[(methoxymethylaminooxalyl)-amino]pentanoic acid] | 1 to 10
O=C(NC1CCCC1)C(=O)N[C@H](Cc1ccc(-c2cccc(Cl)c2)cc1)C[C@@H](O)C(=O)O [Example 4-1, (2R,4R)-5-(3′-Chlorobiphenyl-4-yl)-4-(cyclopentylaminooxalylamino)-2-hydroxypentanoic acid] | 10 to 31.6
Cc1cccc(NNC(=O)C(=O)N[C@H](Cc2ccc(-c3cccc(Cl)c3)cc2)C[C@@H](O)C(=O)O)c1 [Example 6-16, (2R,4R)-5-(3′-Chlorobiphenyl-4-yl)-2-hydroxy-4-[(N′-m-tolylhydrazinooxalyl)-amino]pentanoic acid] | 1 to 10
O=C(N[C@H](Cc1ccc(-c2cccc(Cl)c2)cc1)C[C@@H](O)C(=O)O)C1CCCCO1 (stereo partly drawn) [Example 9, (2R,4R)-5-(3′-Chlorobiphenyl-4-yl)-2-hydroxy-4-[(tetrahydropyran-2-carbonyl)amino]pentanoic Acid] | 1 to 10
CN(C)C(=O)N1CCN(C(=O)C(=O)N[C@H](Cc2ccc(-c3cccc(Cl)c3)cc2)C[C@@H](O)C(=O)O)CC1 [Example 4-40, (2R,4R)-5-(3′-Chlorobiphenyl-4-yl)-4-[2-(4-dimethylcarbamoyl-piperazin-1-yl)-2-oxo-acetylamino]-2-hydroxypentanoic acid] | 10 to 31.6
O=C(NNC(=O)c1ccncc1)C(=O)N[C@H](Cc1ccc(-c2cccc(Cl)c2)cc1)C[C@@H](O)C(=O)O [Example 8-4, (2R,4R)-5-(3′-Chlorobiphenyl-4-yl)-2-hydroxy-4-{2-oxo-2-[N′-(pyridine-4-carbonyl)-hydrazino]acetylamino}pentanoic acid] | 1 to 10
O=C(N[C@H](Cc1ccc(-c2cccc(Cl)c2)cc1)C[C@@H](O)C(=O)O)C(=O)N1CCC(F)CC1 [Example 4-31, (2R,4R)-5-(3′-Chlorobiphenyl-4-yl)-4-[2-(4-fluoropiperidin-1-yl)-2-oxo-acetylamino]-2-hydroxypentanoic acid] | 10 to 31.6
O=C(N[C@H](Cc1ccc(-c2cccc(Cl)c2)cc1)C[C@@H](O)C(=O)O)C(=O)N1CCCO1 [Example 4-48, (2R,4R)-5-(3′-Chlorobiphenyl-4-yl)-2-hydroxy-4-(2-isoxazolidin-2-yl-2-oxo-acetylamino)pentanoic acid] | 1 to 10
C[C@@H]1COC[C@H](C)N1C(=O)C(=O)N[C@H](Cc1ccc(-c2cccc(Cl)c2)cc1)C[C@@H](O)C(=O)O [Example 4-42, (2R,4R)-5-(3′-Chlorobiphenyl-4-yl)-4-[2-((3R,5S)-3,5-dimethylmorpholin-4-yl)-2-oxo-acetylamino]-2-hydroxypentanoic acid] | 10 to 31.6
O=C(N[C@H](Cc1ccc(-c2cccc(Cl)c2)cc1)C[C@@H](O)C(=O)O)C(=O)N1CCC[C@@H](O)C1 [Example 4-21, (2R,4R)-5-(3′-Chlorobiphenyl-4-yl)-2-hydroxy-4-[2-((R)-3-hydroxy-piperidin-1-yl)-2-oxo-acetylamino]pentanoic acid] | 1 to 10
O=C(NNc1ccc([N+](=O)[O-])cc1[N+](=O)[O-])C(=O)N[C@H](Cc1ccc(-c2cccc(Cl)c2)cc1)C[C@@H](O)C(=O)O [Example 5, (2R,4R)-5-(3′-Chlorobiphenyl-4-yl)-4-{[N′-(2,4-dinitrophenyl)-hydrazinooxalyl]-amino}-2-hydroxypentanoic Acid] | ≤ 1
O=C(NC1CONC1=O)C(=O)N[C@H](Cc1ccc(-c2cccc(Cl)c2)cc1)C[C@@H](O)C(=O)O (stereo partly drawn) [Example 4-7, (2R,4R)-5-(3′-Chlorobiphenyl-4-yl)-2-hydroxy-4-[(3-oxo-isoxazolidin-4-ylaminooxalyl)-amino]pentanoic acid] | 1 to 10
O=C(NOCc1ccccc1)C(=O)N[C@H](Cc1ccc(-c2cccc(Cl)c2)cc1)C[C@@H](O)C(=O)O [Example 4-5, (2R,4R)-4-(Benzyloxyaminooxalylamino)-5-(3′-chlorobiphenyl-4-yl)-2-hydroxy-pentanoic acid] | 10 to 31.6
O=C(N[C@H](Cc1ccc(-c2cccc(Cl)c2)cc1)C[C@@H](O)C(=O)O)C(=O)N1CCOCC1 [Example 4-44, (2R,4R)-5-(3′-Chlorobiphenyl-4-yl)-2-hydroxy-4-(2-morpholin-4-yl-2-oxo-acetylamino)pentanoic acid] | 1 to 10
N#CC1CCCN(C(=O)C(=O)N[C@H](Cc2ccc(-c3cccc(Cl)c3)cc2)C[C@@H](O)C(=O)O)C1 (stereo partly drawn) [Example 4-30, (2R,4R)-5-(3′-Chlorobiphenyl-4-yl)-4-[2-(3-cyanopiperidin-1-yl)-2-oxo-acetylamino]-2-hydroxypentanoic acid] | 10 to 31.6
O=C(N[C@H](Cc1ccc(-c2cccc(Cl)c2)cc1)C[C@@H](O)C(=O)O)C(=O)N1CCOC(CO)C1 (stereo partly drawn) [Example 4-43, (2R,4R)-5-(3′-Chlorobiphenyl-4-yl)-2-hydroxy-4-[2-(2-hydroxymethyl-morpholin-4-yl)-2-oxo-acetylamino]pentanoic acid] | 1 to 10
O=C(NNc1ccccc1F)C(=O)N[C@H](Cc1ccc(-c2cccc(Cl)c2)cc1)C[C@@H](O)C(=O)O [Example 6-8, (2R,4R)-5-(3′-Chlorobiphenyl-4-yl)-4-{[N′-(2-fluoro-phenyl)-hydrazinooxalyl]-amino}-2-hydroxypentanoic acid] | 1 to 10
O=C(NNc1ccncc1)C(=O)N[C@H](Cc1ccc(-c2cccc(Cl)c2)cc1)C[C@@H](O)C(=O)O [Example 6-3, (2R,4R)-5-(3′-Chlorobiphenyl-4-yl)-2-hydroxy-4-[(N′-pyridin-4-yl-hydrazino-oxalyl)-amino]pentanoic acid] | 1 to 10
O=C(NNC(=O)c1ccccc1O)C(=O)N[C@H](Cc1ccc(-c2cccc(Cl)c2)cc1)C[C@@H](O)C(=O)O [Example 7, (2R,4R)-5-(3′-Chlorobiphenyl-4-yl)-2-hydroxy-4-{2-[N′-(2-hydroxybenzoyl)hydrazino]-2-oxo-acetylamino}pentanoic Acid] | ≤ 1
CCOCC(=O)N[C@H](Cc1ccc(-c2cccc(Cl)c2)cc1)C[C@@H](O)C(=O)O [Example 10-3, (2R,4R)-5-(3′-Chlorobiphenyl-4-yl)-4-(2-ethoxyacetylamino)-2-hydroxy-pentanoic acid] | 10 to 31.6
CS(=O)(=O)N1CCN(C(=O)C(=O)N[C@H](Cc2ccc(-c3cccc(Cl)c3)cc2)C[C@@H](O)C(=O)O)CC1 [Example 4-39, (2R,4R)-5-(3′-Chlorobiphenyl-4-yl)-2-hydroxy-4-[2-(4-methanesulfonyl-piperazin-1-yl)-2-oxo-acetylamino]pentanoic acid] | 10 to 31.6
O=C(NNC(=O)c1ccc(Cl)nc1)C(=O)N[C@H](Cc1ccc(-c2cccc(Cl)c2)cc1)C[C@@H](O)C(=O)O [Example 8-2, (2R,4R)-5-(3′-Chlorobiphenyl-4-yl)-4-{2-[N′-(6-chloro-pyridine-3-carbonyl)-hydrazino]-2-oxo-acetylamino}-2-hydroxypentanoic acid] | 1 to 10
O=C(NNC(=O)c1ccccc1[N+](=O)[O-])C(=O)N[C@H](Cc1ccc(-c2cccc(Cl)c2)cc1)C[C@@H](O)C(=O)O [Example 8-6, (2R,4R)-5-(3′-Chlorobiphenyl-4-yl)-2-hydroxy-4-{2-[N′-(2-nitro-benzoyl)-hydrazino]-2-oxo-acetylamino}pentanoic acid] | 1 to 10
O=C(N[C@H](Cc1ccc(-c2cccc(Cl)c2)cc1)C[C@@H](O)C(=O)O)C(=O)N1CCCC(C(=O)O)C1 (stereo partly drawn) [Example 4-28, 1-[(1R,3R)-3-Carboxy-1-(3′-chlorobiphenyl-4-ylmethyl)-3-hydroxypropyl-aminooxalyl]-piperidine-3-carboxylic acid] | 1 to 10

Source: patent publication US10053417B2, “Neprilysin inhibitors” (THERAVANCE BIOPHARMA R&D IP, LLC, priority 2013, dated 2018)
